Test results: patent US11135202B2, “Thiazolide compounds for treating viral infections” (Romark Laboratories L.C., priority 2016, dated 2021)
≈ marks a conversion by molar mass, not a printed value.

Legend:
RSV-A2 = RSV-A2 yield in infected HeLa cells (virus-induced syncytia counted by immunofluorescence); assay type: cell-based
Sendai virus (SeV) [1] = experiment: SeV virus yield in AGMK cells (HA titration, plaque assay; MTT viability; cytopathic effect); assay type: cell-based
Sendai virus (SeV) [2] = assay type: cell-based
[3] = test system: respiratory syncytial virus; experiment: Study RM08-3002 clinical trial, time to alleviation of symptoms, RSV patients; settings: human, in vivo

Q: `CC(=O)Oc1ccccc1C(=O)Nc1ncc([N+](=O)[O-])s1` [nitazoxanide] was tested. Which IC50 (RSV-A2; human respiratory syncytial virus, HeLa cells, MOI 1 TCID50/cell, syncytia at 48 hours p.i., non cytotoxic doses, read-out: IC50, antiviral activity against RSV-A2) did it give?
A: Its IC50 is 0.3 µg/mL (≈ 0.976 µM).

Q: What about the IC90 (RSV-A2; human respiratory syncytial virus, HeLa cells, MOI 1 TCID50/cell, syncytia at 48 hours p.i., non cytotoxic doses, read-out: IC90, antiviral activity against RSV-A2) of the same molecule?
A: The IC90 was 0.8 µg/mL (≈ 2.6 µM).

Q: And the “effect of treatment against RSV” value (RSV-A2; in vitro)?
A: The value was “effective against RSV”.

Q: And the “protection of infected cells from virus-induced damage” value (Sendai virus (SeV) [1]; SeV 3 PFU/cell, 10 μg/ml, 24 h p.i.)?
A: The value was “cytoprotective”.

Q: What about the “inhibition of SeV replication” value (Sendai virus (SeV) [1]; at concentrations non-toxic for the host cells) of the same molecule?
A: The value was “effective”.

Q: What about the “inhibition of SeV in A549 cells” value (Sendai virus (SeV) [2]) of the same molecule?
A: Its value is “also effective”.

Q: And the “reduction in duration of symptoms at the median vs placebo” value [3]?
A: Its value is 76 h.
